Measured values reported in ChEMBL document CHEMBL3397019, “Enhancement of antioxidant effects of naringin after atmospheric pressure dielectric barrier discharge plasma treatment” (Bioorg Med Chem Lett, 2015).

Key:
Assay type in all cases: physicochemical
[1] = Antioxidant activity assessed as ONOO- scavenging activity using plasma treated compound
[2] = Antioxidant activity assessed as DPPH free radical scavenging activity using plasma treated compound
[3] = Antioxidant activity assessed as ONOO- scavenging activity
[4] = Antioxidant activity assessed as DPPH free radical scavenging activity

SMILES	IC50 [1]	IC50 [2]	IC50 [3]	IC50 [4]
C[C@@H]1O[C@@H](O[C@H]2[C@H](Oc3cc(O)c4c(c3)O[C@H](c3ccc(O)cc3)CC4=O)O[C@H](CO)[C@@H](O)[C@@H]2O)[C@H](O)[C@H](O)[C@H]1O [NARINGIN]	15.6 µM	110 µM		
C[C@H]1O[C@@H](O[C@H]2[C@H](Oc3cc(O)c4c(c3)O[C@H](c3ccc(O)cc3)CC4=O)O[C@H](CO)[C@@H](O)[C@@H]2O)[C@H](O)[C@@H](O)[C@@H]1O			> 300 µM	> 300 µM
Oc1cc(O)c2c(c1)O[C@H](c1ccc(O)c(O)c1)[C@@H](O)C2 [CIANIDANOL]				23.9 µM
COCO[C@H]1[C@H](O)[C@@H](O[C@@H]2O[C@H](C)[C@@H](O)[C@H](O)[C@H]2O)[C@H](Oc2cc(O)c3c(c2)O[C@@H](c2ccc(O)cc2)CC3=O)O[C@@H]1CO			4.1 µM	57.3 µM
COCO[C@H]1[C@H](O)[C@@H](O)[C@H](O[C@H]2[C@H](Oc3cc(O)c4c(c3)O[C@H](c3ccc(O)cc3)CC4=O)O[C@H](CO)[C@@H](O)[C@@H]2O)O[C@@H]1C			256 µM	148 µM
CC(C)(S)[C@H](N)C(=O)O			5.2 µM	
C[C@H]1O[C@@H](O[C@H]2[C@H](Oc3cc(O)c4c(c3)O[C@@H](c3ccc(O)cc3)CC4=O)O[C@H](CO)[C@@H](O)[C@@H]2O)[C@H](O)[C@@H](O)[C@@H]1O			> 300 µM	93.8 µM
